Assay [1] has as its system H2228 (EML4-ALK fusion gene). The following applies: method not stated; cited from earlier work.
For assay [2], the system named is H1975 (EGFR^L858R+T790M) cells. Nature of the assay: Apoptosis by Annexin V/PI staining with flow cytometry. Type of assay: cell-based, human. As for the experimental part: Annexin V/PI staining is used to detect early and late stages of apoptosis. According to the manufacturer's protocol (BD Pharmingen), 5×10^5 cells of the treated and control groups were harvested, washed, and double-stained with Annexin V/PI for 15 min at room temperature in dark. Then apoptotic cells were quantitatively counted by a flow cytometer (BD FACSAria III). Early stage of apoptotic cells were stained with Annexin V-positive and PI-negative, while the late stage of apoptotic cells were stained with Annexin V-positive and PI-positive.
Example 6 further studies if the sanguinarine-induced apoptosis in H1975 (EGFR^L858R+T790M) is in caspases-dependent manner H1975 cells were treated with 1.25 μM sanguinarine and 1.25 μM sanguinarine together with 50 μM pan-caspase inhibitor for 24 hrs.
For orientation: Flow cytometry measures light scatter and fluorescence of single cells or particles in a stream.

For another assay, the system named is EGFR. Nature of the assay: Western blot analysis of the protein level of EGFR. Type of assay: cell-based, human. Conditions: 5 μM NAC and 1.25 μM sanguinarine. Here is the method: (§1) Cells were lysed in RIPA lysis buffer with protease and phosphatase inhibitors added for total whole cell protein extraction. The concentration of the total protein extract was determined by Bio-Rad DCTM protein assay kit (Bio-Rad). Then samples were loaded and separated onto a 10% SDS-PAGE gel and then the separated proteins were transferred to a Nitrocellulose (NC) membrane. Membranes were blocked with 5% milk without fat in TBST for 1 hour at room temperature. Primary antibodies (1:1000 dilutions for Cell Signaling antibodies; 1:500 dilutions for Santa Cruz antibodies) were added and incubated overnight at 4° C. On the other day, membrane was washed by TBST for three times (5 mins/wash), while secondary fluorescent antibody (1:10000 dilutions) was added to membrane and incubated at room temperature for 1 hr. Actin was used as loading control and for normalization. The signal intensity of the membranes was detected by Odessy (LI-COR).
In Example 3, the protein level of EGFR after sanguinarine treatment with difference dosage and duration was analyzed.

A further assay concerns JNK, p38. In words: Western blot of phosphorylation of JNK and p38. Type of assay: cell-based, human. Conditions: 5 μM NAC and 1.25 μM sanguinarine. As for the experimental part: as §1
ROS intensity was increased with the increase of sanguinarine treatment time. Sanguinarine-induced apoptosis in H1975 cells, in which the cells were pre-treated with 5 μM NAC and a ROS generation inhibitor, was also studied. […] Also, P-EGFR 1045 as shown in FIG. 6 is a tyrosine(Y) phosphorylation site of EGFR at amino acid position 1045 (Y1045) and phosphorylation of this site will lead to activation of EGFR degradation after cbl docking to this site
In general terms: In western blotting, separated proteins are transferred to a membrane and probed.

On to `COc1cc2ncnc(Nc3ccc(F)c(Cl)c3)c2cc1OCCCN1CCOCC1` [Gefitinib], for which the “Gefitinib Sensitivity” value in assay [1] was “Resistant”.

On to `C[n+]1cc2c3c(ccc2c2ccc4cc5c(cc4c21)OCO5)OCO3` [sanguinarine], for which, in assay [2] (H1975, 1.25 μM, 24 hrs), the “more cell debris than control” value is on record as 20%. Moreover, the “increase in early stage of apoptosis compared with the control group” value in assay [2] (H1975, 1.25 μM, 24 hrs, early stage (Q3)) is given as 7.2 fold.

On to `CC(=O)N[C@@H](CS)C(=O)O` [NAC], for which the “EGFR degradation induced by sanguinarine” value in the assay with EGFR is listed as “block”. Besides, the “apoptosis induced by sanguinarine after NAC pre-treatment” value in assay [2] (H1975, pre-treated with 5 μM NAC, sanguinarine) is “completely blocked”. Further, the “phosphorylation of JNK, p38 induced by sanguinarine” value in the assay with JNK, p38 is on record as “block”.

Source of the values: patent US20140371254A1, “NOVEL TREATMENT OF GEFITINIB-RESISTANT NON-SMALL-CELL LUNG CANCER” (Macau University of Science and Technology, priority 2013, published 2014).
